“And” between values parts separate entries of the source, which are not always exact repeats. Identical values can stand only once.
Columns and labels:
[1] = for vapor or sublimation pressure: Liquid; for Normal melting temperature: Crystal, DTA
[2] = Molar enthalpy of transition or fusion; conditions: Crystal; DSC

CC(=O)Nc1ccc(Br)cc1 [N-(4-bromophenyl)acetamide]
vapor or sublimation pressure, [1]
Conditions	Isothermal thermogravimetry	Nonisothermal thermogravimetry
444.2 K	–	0.304 kPa
446.2 K	0.384 kPa and 0.382 kPa	–
446.3 K	0.353 kPa	–
446.4 K	–	0.366 kPa
447.1 K	0.381 kPa	–
447.7 K	0.394 kPa	–
448.2 K	0.422 kPa	–
448.4 K	–	0.398 kPa
449.4 K	0.415 kPa	–
449.9 K	0.443 kPa	–
450.2 K	0.453 kPa	0.443 kPa
451.3 K	0.447 kPa	–
452.1 K	0.489 kPa	–
452.2 K	0.496 kPa	–
452.3 K	–	0.579 kPa
453.4 K	0.528 kPa	–
453.6 K	0.494 kPa	–
454.2 K	0.539 kPa	–
454.4 K	–	0.621 kPa
455.3 K	0.54 kPa	–
455.9 K	0.584 kPa	–
456.3 K	0.606 kPa	–
456.4 K	–	0.611 kPa
457.6 K	0.605 kPa	–
457.8 K	0.634 kPa	–
458.2 K	0.65 kPa	–
458.3 K	–	0.712 kPa
459.3 K	0.67 kPa	–
459.5 K	0.693 kPa	–
460.2 K	0.732 kPa	–
460.3 K	–	0.793 kPa
461.5 K	0.724 kPa	–
462 K	0.777 kPa	–
462.2 K	0.793 kPa	0.882 kPa
463.5 K	0.793 kPa	–
463.6 K	0.84 kPa	–
464.2 K	0.862 kPa	–
464.3 K	–	0.953 kPa
465.2 K	0.855 kPa	–
465.9 K	0.911 kPa	–
466.1 K	0.943 kPa	–
466.2 K	–	0.998 kPa
467.1 K	0.927 kPa	–
468.2 K	1.011 kPa	–
468.3 K	1.006 kPa	1.147 kPa
469.2 K	1.005 kPa	–
470.2 K	1.098 kPa and 1.075 kPa	–
470.3 K	–	1.074 kPa
471.1 K	1.086 kPa	–
472.1 K	1.208 kPa	–
472.2 K	–	1.398 kPa
472.4 K	1.175 kPa	–
473.2 K	1.17 kPa	–
474.1 K	1.285 kPa	–
474.3 K	–	1.482 kPa
475.3 K	1.239 kPa	–
476.2 K	1.381 kPa	1.497 kPa
478.3 K	–	1.779 kPa
480.2 K	–	1.749 kPa
482.3 K	–	1.937 kPa
484.3 K	–	2.151 kPa
486.2 K	–	2.296 kPa
488.3 K	–	2.466 kPa
490.2 K	–	2.741 kPa
492.2 K	–	2.83 kPa
494.3 K	–	3.134 kPa
496.2 K	–	3.347 kPa
498.3 K	–	3.604 kPa
500.3 K	–	3.812 kPa
502.2 K	–	4.149 kPa
504.3 K	–	4.419 kPa
506.2 K	–	4.593 kPa
508.2 K	–	4.944 kPa
510.2 K	–	5.307 kPa
512.2 K	–	5.584 kPa
514.4 K	–	5.847 kPa
516.2 K	–	6.243 kPa

Conditions	Molar enthalpy of transition or fusion [kJ/mol]
[2]	26

CCOc1ccc(NC(C)=O)cc1 [N-(4-ethoxyphenyl)ethanamide]
vapor or sublimation pressure, [1]
Conditions	Isothermal thermogravimetry	Nonisothermal thermogravimetry
418.2 K	–	0.088 kPa
420.2 K	–	0.087 kPa
422.2 K	–	0.102 kPa
424.3 K	–	0.106 kPa
426.2 K	–	0.146 kPa
428.2 K	–	0.146 kPa
430.3 K	–	0.162 kPa
432.3 K	–	0.171 kPa
434.3 K	–	0.199 kPa
438.2 K	–	0.247 kPa
440.2 K	–	0.259 kPa
442.2 K	–	0.309 kPa
444.2 K	–	0.329 kPa
446.2 K	–	0.401 kPa
448.2 K	–	0.396 kPa
450.2 K	–	0.452 kPa
452.2 K	–	0.479 kPa
454.2 K	–	0.538 kPa
456.3 K	–	0.589 kPa
458.2 K	–	0.643 kPa
460.2 K	–	0.707 kPa
460.3 K	0.821 kPa	–
461.1 K	0.829 kPa	–
461.9 K	0.815 kPa	–
462.2 K	0.899 kPa	0.785 kPa
463.3 K	0.958 kPa	–
464.1 K	0.935 kPa	–
464.3 K	0.96 kPa	0.84 kPa
465.5 K	1.054 kPa	–
466.2 K	1.028 kPa and 1.087 kPa	–
466.3 K	–	0.936 kPa
467.4 K	1.116 kPa	–
468.1 K	1.149 kPa	–
468.2 K	–	1.057 kPa
468.3 K	1.165 kPa	–
469.3 K	1.242 kPa	–
470 K	1.259 kPa	–
470.2 K	–	1.11 kPa
470.3 K	1.273 kPa	–
471 K	1.26 kPa	–
471.8 K	1.327 kPa	–
472.2 K	1.381 kPa	1.192 kPa
473.3 K	1.377 kPa	–
474 K	1.484 kPa	–
474.2 K	–	1.324 kPa
474.3 K	1.551 kPa	–
475.4 K	1.567 kPa	–
476.1 K	1.571 kPa	–
476.2 K	1.666 kPa	1.4 kPa
477.6 K	1.691 kPa	–
478.3 K	1.709 kPa and 1.766 kPa	1.559 kPa
479.1 K	1.789 kPa	–
479.8 K	1.808 kPa	–
480.2 K	1.915 kPa	1.679 kPa
481.2 K	2.014 kPa	–
482 K	2.037 kPa	–
482.3 K	2.099 kPa	1.802 kPa
483.3 K	2.204 kPa	–
484.1 K	2.228 kPa	–
484.3 K	2.276 kPa	1.945 kPa
485.3 K	2.4 kPa	–
486 K	2.495 kPa	–
486.2 K	2.488 kPa	2.088 kPa
487.1 K	2.633 kPa	–
487.8 K	2.702 kPa	–
488.2 K	–	2.229 kPa
488.3 K	2.686 kPa	–
489 K	2.881 kPa	–
489.8 K	2.981 kPa	–
490.2 K	2.941 kPa	–
490.3 K	–	2.41 kPa
491.1 K	3.159 kPa	–
492.3 K	–	2.535 kPa
494.3 K	–	2.717 kPa
496.2 K	–	2.889 kPa
498.2 K	–	3.001 kPa
500.3 K	–	3.29 kPa
502.3 K	–	3.213 kPa

Conditions	Molar enthalpy of transition or fusion [kJ/mol]	Normal melting temperature [°C]
[1]	–	136.5
[2]	30	–

CC(=O)Nc1ccc(O)cc1 [N-acetyl-p-aminophenol]
vapor or sublimation pressure [kPa], [1]
Conditions	Isothermal thermogravimetry	Nonisothermal thermogravimetry
477.3 K	0.194	0.197
478.8 K	0.1996	–
479.3 K	0.206	0.204
480 K	0.225	–
480.8 K	0.2307	–
481.4 K	0.249	0.25
482 K	0.2601	–
482.9 K	0.2539	–
483.2 K	0.276	0.259
483.8 K	0.2861	–
484.7 K	0.2838	–
485.2 K	0.303	–
485.9 K	0.3199	–
486.7 K	0.3264	–
487.3 K	0.336	0.341
487.9 K	0.3679	–
488.8 K	0.3624	–
489.3 K	0.365	0.315
490 K	0.3891	–
490.8 K	0.3978	–
491.2 K	0.409	0.468
491.8 K	0.437	–
492.7 K	0.449	–
493.3 K	0.44	0.447
493.9 K	0.482	–
494.8 K	0.4882	–
495.4 K	0.492	0.504
496 K	0.524	–
496.9 K	0.5169	–
497.2 K	0.554	–
497.9 K	0.5547	–
498.7 K	0.5818	–
499.3 K	0.61	0.669
499.9 K	0.6246	–
500.8 K	0.6364	–
501.4 K	0.677	–
502 K	0.6832	–
502.9 K	0.7129	–
503.2 K	0.733	0.729
503.4 K	–	0.838
503.8 K	0.765	–
504.7 K	0.7889	–
505.2 K	0.815	0.861
505.8 K	0.8468	–
506.7 K	0.8517	–
507.2 K	0.888	0.945
507.9 K	0.9142	–
508.7 K	0.933	–
509.3 K	–	1.037
511.3 K	–	1.207
513.4 K	–	1.178
515.4 K	–	1.41
517.2 K	–	1.544
519.2 K	–	1.696
521.3 K	–	1.757
523.2 K	–	2.012
525.3 K	–	2.197
527.3 K	–	2.32
529.2 K	–	2.607
531.2 K	–	2.823
533.3 K	–	3.064
535.4 K	–	3.295
537.2 K	–	3.552
539.3 K	–	4.01
541.3 K	–	4.144
543.3 K	–	4.653
545.4 K	–	5.059
547.4 K	–	5.373
549.2 K	–	5.759
551.2 K	–	6.208
553.2 K	–	6.719
557.3 K	–	7.824
559.4 K	–	8.304
561.2 K	–	8.944

Conditions	Molar enthalpy of transition or fusion [kJ/mol]	Normal melting temperature [°C]
[1]	–	172.5
[2]	27	–

From the NIST ThermoML archive (doi:10.1016/j.fluid.2009.02.001)
